Data from patent publication US20050245540A1, “New methods” (FUJISAWA PHARMACEUTICAL CO., LTD., priority 2003, published 2005).
Counter-ions that a name gives are not always drawn.

test system: calvaria from 5-day-old ICR mice; test: Assay using mouse calvarial organ culture (calvaria bone formation assay); format: cell-based; conditions: test compound 1.0 × 10^−5 M added in combination with TGF-beta1; new bone area by histomorphometry after 1 week culture
Procedure: Assay using Mouse Calvarial Organ Culture
Calvaria bone formation assay was essentially performed as described by Bonewald et al. (Endocrinology 139:3178, 1998). The calvaria from 5-day-old ICR mice were excised and cut in half along the sagittal suture. Each half of the calvaria was placed on a stainless steel grid in a 12-well tissue culture dish. Each well contained BGJ media (Sigma) supplemented with 0.1% bovine serum albumine, to which the test compound was added in combination with TGF-beta1. The media was changed 24 and 96 hrs. Calvaria were maintained in humidified air (5% CO2) at 37° C. for 1 week. The calvaria were then fixed overnight in formalin, decalcified in EDTA, and were then embedded in paraffin wax. Calvaria sections were stained with hematoxylin and eosin. Histomorphometric analysis was performed using the Image-pro Plus (Trade mark, Media Cybernetics). The sum of the new bone area was determined. Rate of increase was calculated in the following; [formula] • Calvaria area is calculated using Histomorphometric analysis. • Ats: Score of area in case of addition of test compound and TGF beta1 • Atg: Score of area in case of addition of TGF beta1 • Ac: Score of area in case of no addition (Control)

| Structure (SMILES) | Rate of increase [%] |
| --- | --- |
| Cc1ccc(Cn2cc(C3CCNCC3)c3ccccc32)cc1C [9-(5)] | 180 |
| COC(=O)c1cccc(Cn2cc(C3CCNCC3)c3ccccc32)c1 [9-(18)] | 158 |
| CC(C)(C)OC(=O)NCCCCCCCN1CCC(c2c[nH]c3ccc(O)cc23)CC1 [40-(3), 3-[1-(7-tert-butoxycarbonylaminoheptyl)-4-piperidinyl]-5-hydroxy-1H-indole] | 140 |
| COc1ccc(Cn2cc(C3CCN(C(=O)OC(C)(C)C)CC3)c3ccc(C#N)cc32)cc1Cl [46-(4)] | 203 |
| COc1ccc(Cn2cc(C3CCNCC3)c3ccc(C#N)cc32)cc1Cl.Cl [49-(6), 1-(3-Chloro-4-methoxybenzyl)-6-cyano-3-(4-piperidinyl)-1H-indole hydrochloride] | 112 |
| CS(=O)(=O)c1ccc(Cn2cc(C3CCNCC3)c3ccccc32)cc1 [Example 7, 1-[4-(methylsulfonyl)benzyl]-3-(4-piperidinyl)-1H-indole hydrochloride] | 206 |

test system: not given; test: not given; conditions: not given

| melting point [°C] | Structure (SMILES) |
| --- | --- |
| 159 to 160 | CC(C)(C)OC(=O)N1CCC(c2c[nH]c3ccccc23)CC1 [Example 1, tert-butyl 4-(1H-indol-3-yl)-1-piperidinecarboxylate] |
| 136 to 137 | CC(C)(C)OC(=O)N1CCC(c2cn(S(C)(=O)=O)c3ccccc23)CC1 [Example 4, tert-butyl 4-[1-(methylsulfonyl)-1H-indol-3-yl]-1-piperidinecarboxylate] |
